The values that follow come from patent US9758517B2, “Histone demethylase inhibitors” (Quanticel Pharmaceuticals, Inc., priority 2014, dated 2017).

The target in the experiment is JMJD2C (Homo sapiens (Human), UniProt Q9H3R0). Description: In vitro enzyme inhibition assay, JMJD2C demethylase activity (TR-FRET). The format is biochemical. The note with it: 0.3 nM JMJD2C, 300 nM H3K9me3-biotin peptide, 2 μM alpha-ketoglutaric acid, 30 minutes at room temperature. The protocol: This assay determines the ability of a test compound to inhibit JMJD2C demethylase activity. Baculovirus expressed JMJD2C (GenBank Accession #BC143571, AA 2-372) was purchased from BPS Bioscience (Cat#50105).
Chain of JMJD2C (Q9H3R0 2-372): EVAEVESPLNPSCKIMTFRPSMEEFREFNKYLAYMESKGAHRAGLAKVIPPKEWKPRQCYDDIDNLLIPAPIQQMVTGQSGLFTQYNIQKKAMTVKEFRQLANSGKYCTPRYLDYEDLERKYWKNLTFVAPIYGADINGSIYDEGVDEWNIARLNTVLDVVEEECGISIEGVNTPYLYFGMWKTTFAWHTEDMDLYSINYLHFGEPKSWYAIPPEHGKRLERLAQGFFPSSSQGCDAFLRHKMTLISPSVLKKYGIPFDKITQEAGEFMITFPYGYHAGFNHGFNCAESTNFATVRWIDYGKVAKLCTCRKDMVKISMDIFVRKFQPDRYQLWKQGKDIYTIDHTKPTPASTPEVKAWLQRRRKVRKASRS
The ability of test compounds to inhibit the activity of JMJD2C was determined in 384-well plate format under the following reaction conditions: 0.3 nM JMJD2C, 300 nM H3K9me3-biotin labeled peptide (Anaspec cat #64360), 2 μM alpha-ketoglutaric acid in assay buffer of 50 mM HEPES, pH7.3, 0.005% Brij35, 0.5 mM TCEP, 0.2 mg/ml BSA, 50 μM sodium L-ascorbate, and 2 μM ammonium iron(II) sulfate. Reaction product was determined quantitatively by TR-FRET after the addition of detection reagent Phycolink Streptavidin-allophycocyanin (Prozyme) and Europium-anti-di-methylated histone H3 lysine 9 (H3K9me2) antibody (PerkinElmer) in the presence of 5 mM EDTA in LANCE detection buffer (PerkinElmer) at a final concentration of 50 nM and 1 nM, respectively.
The assay reaction was initiated by the following: 2 μL of the mixture of 900 nM H3K9me3-biotin labeled peptide and 6 μM alpha-ketoglutaric acid with 2 μL of 11-point serial diluted inhibitor in 3% DMSO were added to each well of the plate, followed by the addition of 2 μl of 0.9 nM JMJD2C to initiate the reaction. The reaction mixture was incubated at room temperature for 30 minutes, and terminated by the addition of 6 μL of 5 mM EDTA in LANCE detection buffer containing 100 nM Phycolink Streptavidin-allophycocyanin and 2 nM Europium-anti-H3K9me2 antibody. Plates were read by EnVisionMultilabel Reader in TR-FRET mode (excitation at 320 nm, emission at 615 nm and 665 nm) after 1 hour incubation at room temperature. A ratio was calculated (665/615) for each well and fitted to determine inhibition constant (IC50).
For `COc1ccc2c(-c3cc4nccc(C(=O)O)c4[nH]3)n(C)nc2c1` [Example 1, 2-(6-Methoxy-2-methyl-2H-indazol-3-yl)-1H-pyrrolo[3,2-b]pyridine-7-carboxylic acid], the IC50 fell in the range of 100 to 1000 nM.
The compound `COc1ccc2nn(C)c(-c3cc4nccc(C(=O)O)c4[nH]3)c2c1` [Example 2, 2-(5-Methoxy-2-methyl-2H-indazol-3-yl)-1H-pyrrolo[3,2-b]pyridine-7-carboxylic acid] registered an IC50 of 100 to 1000 nM.
Compound `Cn1nc2cc(Cl)ccc2c1-c1cc2nccc(C(=O)O)c2[nH]1` [Example 3, 2-(6-Chloro-2-methyl-2H-indazol-3-yl)-1H-pyrrolo[3,2-b]pyridine-7-carboxylic acid] displayed an IC50 of 100 to 1000 nM.
With `Cn1nc2ccc(C(F)(F)F)cc2c1-c1cc2nccc(C(=O)O)c2[nH]1` [Example 4, 2-[2-Methyl-5-(trifluoromethyl)-2H-indazol-3-yl]-1H-pyrrolo[3,2-b]pyridine-7-carboxylic acid] the figure was 1000 to 10000 nM.
With `Cn1nc2ccc(OC(F)(F)F)cc2c1-c1cc2nccc(C(=O)O)c2[nH]1` [Example 5, 2-[2-Methyl-5-(trifluoromethoxy)-2H-indazol-3-yl]-1H-pyrrolo[3,2-b]pyridine-7-carboxylic acid] the figure was 1000 to 10000 nM.
With `Cn1nc2ccc(C3CC3)cc2c1-c1cc2nccc(C(=O)O)c2[nH]1` [Example 6, 2-(5-Cyclopropyl-2-methyl-2H-indazol-3-yl)-1H-pyrrolo[3,2-b]pyridine-7-carboxylic acid] the figure was 100 to 1000 nM.
`Cn1nc2ccc(Cl)cc2c1-c1cc2nccc(C(=O)O)c2[nH]1` [Example 7, 2-(5-Chloro-2-methyl-2H-indazol-3-yl)-1H-pyrrolo[3,2-b]pyridine-7-carboxylic acid] had an IC50 of 1000 to 10000 nM.
In turn, `CCn1nc2cc(Cl)ccc2c1-c1cc2nccc(C(=O)O)c2[nH]1` [Example 8, 2-(6-Chloro-2-ethyl-2H-indazol-3-yl)-1H-pyrrolo[3,2-b]pyridine-7-carboxylic acid] showed an IC50 of 1000 to 10000 nM.
With `O=C(O)c1ccnc2cc(-c3c4ccc(Cl)cc4nn3CC3CC3)[nH]c12` [Example 9, 2-[6-Chloro-2-(cyclopropylmethyl)-2H-indazol-3-yl]-1H-pyrrolo[3,2-b]pyridine-7-carboxylic acid], the 50% inhibitory concentration (IC50) was 1000 to 10000 nM.
With `O=C(O)c1ccnc2cc(-c3c4cc(Cl)ccc4nn3CCN3CCCC3)[nH]c12` [Example 10, 2-{5-Chloro-2-[2-(pyrrolidin-1-yl)ethyl]-2H-indazol-3-yl}-1H-pyrrolo[3,2-b]pyridine-7-carboxylic acid] the figure was 100 to 1000 nM.
The compound `CN(c1ccccc1)c1ccc2c(-c3cc4nccc(C(=O)O)c4[nH]3)n(C)nc2c1` [Example 11, 2-{2-methyl-6-[methyl(phenyl)amino]-2H-indazol-3-yl}-1H-pyrrolo[3,2-b]pyridine-7-carboxylic acid] yielded an IC50 of 100 to 1000 nM.
For `CN(c1ccccc1)c1cccc2c(-c3cc4nccc(C(=O)O)c4[nH]3)n(C)nc12` [Example 12, 2-{2-methyl-7-[methyl(phenyl)amino]-2H-indazol-3-yl}-1H-pyrrolo[3,2-b]pyridine-7-carboxylic acid], the IC50 fell in the range of 1000 to 10000 nM.
Consider `Cn1nc(-c2cc3nccc(C(=O)O)c3[nH]2)c2ccccc21` [Example 13, 2-(1-methyl-1H-indazol-3-yl)-1H-pyrrolo[3,2-b]pyridine-7-carboxylic acid], for which the IC50 fell in the range of 100 to 1000 nM.
For `Cn1nc(-c2cc3nccc(C(=O)O)c3[nH]2)c2cc(F)ccc21` [Example 14, 2-(5-fluoro-1-methyl-1H-indazol-3-yl)-1H-pyrrolo[3,2-b]pyridine-7-carboxylic acid], the IC50 was 100 to 1000 nM.
With `Cn1nc(-c2cc3nccc(C(=O)O)c3[nH]2)c2ccc(Cl)cc21` [Example 15, 2-(6-chloro-1-methyl-1H-indazol-3-yl)-1H-pyrrolo[3,2-b]pyridine-7-carboxylic acid] the figure was 100 to 1000 nM.
The value for `Cn1nc(-c2cc3nccc(C(=O)O)c3[nH]2)c2ccc(F)cc21` [Example 16, 2-(6-fluoro-1-methyl-1H-indazol-3-yl)-1H-pyrrolo[3,2-b]pyridine-7-carboxylic acid] was 100 to 1000 nM; that for `CCn1nc(-c2cc3nccc(C(=O)O)c3[nH]2)c2ccc(Cl)cc21` [Example 17, 2-(6-chloro-1-ethyl-1H-indazol-3-yl)-1H-pyrrolo[3,2-b]pyridine-7-carboxylic acid] was 1000 to 10000 nM; that for `O=C(O)c1ccnc2cc(-c3nn(CC4CC4)c4cc(Cl)ccc34)[nH]c12` [Example 18, 2-[6-chloro-1-(cyclopropylmethyl)-1H-indazol-3-yl]-1H-pyrrolo[3,2-b]pyridine-7-carboxylic acid] was 1000 to 10000 nM.
Compound `O=C(O)c1ccnc2cc(-c3nn(CC(F)(F)F)c4cc(Cl)ccc34)[nH]c12` [Example 19, 2-[6-chloro-1-(2,2,2-trifluoroethyl)-1H-indazol-3-yl]-1H-pyrrolo[3,2-b]pyridine-7-carboxylic acid] displayed an IC50 of 1000 to 10000 nM.
In the case of `O=C(O)c1ccnc2cc(-c3nn(CCN4CCCC4)c4ccc(Cl)cc34)[nH]c12` [Example 20, 2-{5-chloro-1-[2-(pyrrolidin-1-yl)ethyl]-1H-indazol-3-yl}-1H-pyrrolo[3,2-b]pyridine-7-carboxylic acid], the IC50 was 100 to 1000 nM.
The compound `O=C(O)c1ccnc2cc(-c3nn(CCN4CCOCC4)c4ccc(F)cc34)[nH]c12` [Example 21, 2-{5-fluoro-1-[2-(morpholin-4-yl)ethyl]-1H-indazol-3-yl}-1H-pyrrolo[3,2-b]pyridine-7-carboxylic acid] registered an IC50 of 1000 to 10000 nM.
